The test has as its target T1, PDGF-Ra (Homo sapiens, UniProt P16234).
T1 construct: host or cells: G-292 human osteosarcoma cells
As to the kind of experiment: Inhibitory activity against PDGF-Ra phosphorylation by PDGF-AA stimulation using G292. Format: cell-based. Conditions: for IC50: > means inhibition at indicated concentration not more than 50%, < and << not less than 50%, read-out: PDGF (E) IC50; for inhibition at 0.1 µM: G292, at 100 nM, read-out: PDGF (E) inhibition (%) at 100 nM. The procedure:
Measurement of Inhibitory Activity Against PDGF-Ra Phosphorylation by PDGF-AA Stimulation Using G292
G-292 human osteosarcoma cells (Dainippon Pharmaceutical Co. Ltd.) were cultured in a DMEM medium (Dainippon Pharmaceutical Co. Ltd.) containing 10% FBS within an incubator containing 5% carbon dioxide until 80% confluent, and the cells were planted at 3×10^4 cells per well in 96-well flat-bottom plates in the same medium containing 0.1% FBS. After cultivation at 37° C. overnight, a solution of a test compound in dimethyl sulfoxide was added to each well, and a reaction was allowed to proceed at 37° C. for one hr.
After the reaction of the test compound, PDGF-AA (Upstate) was added to 50 ng/ml, and the cells were stimulated at 37° C. for 5 min. Thereafter, the cells were solubilized and shaken at room temperature for 20 min.
This solubilized cell solution was transferred to a 96-well plate coated with aniti-phosphotyrosine antibody PY-20, and a reaction was allowed to proceed at 4° C. overnight. Anti-PDGF-Ra (c-20) (Santa Cruz) was added as a primary antibody, and a reaction was allowed to proceed for one hr. GAR (Anti-rabbit Ig, horseradish peroxidase, Amersham) was then added as a secondary antibody, and a reaction was allowed to proceed for one hr. Color development was carried out using a color development kit for peroxidase (Sumitomo Bakelite Co., Ltd.), and the absorbance was measured at 450 nm.

Setting [1] is: figure within parentheses in >100( ).

The values that follow come from US7135466B2 (Kirin Beer Kabushiki Kaisha, priority 1999, dated 2006).

Read-outs that look alike come from different tables or passages of the source.

T1 sequence (P16234 24-1089): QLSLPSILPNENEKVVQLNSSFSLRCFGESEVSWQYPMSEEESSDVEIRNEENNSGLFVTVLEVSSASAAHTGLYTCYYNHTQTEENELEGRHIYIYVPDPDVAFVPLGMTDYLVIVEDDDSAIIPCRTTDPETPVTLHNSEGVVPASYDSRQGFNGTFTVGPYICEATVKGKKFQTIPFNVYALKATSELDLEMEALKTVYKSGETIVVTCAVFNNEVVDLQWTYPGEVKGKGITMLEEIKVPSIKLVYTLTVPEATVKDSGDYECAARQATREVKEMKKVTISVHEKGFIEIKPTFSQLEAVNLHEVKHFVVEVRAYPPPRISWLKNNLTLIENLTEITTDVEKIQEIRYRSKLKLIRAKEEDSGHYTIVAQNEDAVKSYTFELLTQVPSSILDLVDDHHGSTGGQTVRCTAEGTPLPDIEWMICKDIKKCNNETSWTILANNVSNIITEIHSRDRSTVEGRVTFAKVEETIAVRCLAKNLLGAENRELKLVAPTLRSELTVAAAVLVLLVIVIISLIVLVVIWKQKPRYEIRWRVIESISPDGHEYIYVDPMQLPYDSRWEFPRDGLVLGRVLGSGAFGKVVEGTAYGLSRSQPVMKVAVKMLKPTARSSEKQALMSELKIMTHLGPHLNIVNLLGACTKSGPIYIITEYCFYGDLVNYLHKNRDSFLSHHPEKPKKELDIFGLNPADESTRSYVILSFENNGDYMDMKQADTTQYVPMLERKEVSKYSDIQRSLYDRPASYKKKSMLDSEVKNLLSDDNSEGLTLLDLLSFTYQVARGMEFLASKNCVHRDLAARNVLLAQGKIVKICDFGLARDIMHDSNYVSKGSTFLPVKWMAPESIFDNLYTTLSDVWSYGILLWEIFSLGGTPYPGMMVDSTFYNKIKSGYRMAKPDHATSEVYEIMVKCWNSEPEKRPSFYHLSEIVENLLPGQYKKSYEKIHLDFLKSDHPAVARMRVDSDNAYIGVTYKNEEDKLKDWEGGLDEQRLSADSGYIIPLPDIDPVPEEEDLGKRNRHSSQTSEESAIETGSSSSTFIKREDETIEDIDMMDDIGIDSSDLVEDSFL

By IC50 is commonly meant the concentration that gives 50% inhibition. With `COc1cc2nccc(Oc3cc(C)c(NC(=O)OCCOc4ccccc4F)cc3C)c2cc1OC` [Example 205, 2-(2-Fluorophenoxy)ethyl N-{4-[(6,7-dimethoxy-4-quinolyl)oxy]-2,5-dimethylphenyl}carbamate], the IC50 (Pharmacological Test Example 1) amounted to 78 nM.

Regarding `COc1cc2nccc(Oc3cc(C)c(NC(=O)OCCOc4cccc(F)c4)cc3C)c2cc1OC` [Example 209, 2-(3-Fluorophenoxy)ethyl N-{4-[(6,7-dimethoxy-4-quinolyl)oxy]-2,5-dimethylphenyl}carbamate], under “Pharmacological Test Example 1”, the IC50 was over 100 nM. Still for that read-out and setting: to `COc1cc2nccc(Oc3ccc(NC(=O)OCCC4CCCCC4)cc3)c2cc1OC` [Example 353, 2-Cyclohexylethyl N-{4-[(6,7-dimethoxy-4-quinolyl)oxy]phenyl}carbamate] belongs under 10 nM; to `COc1cc2nccc(Oc3cc(C)c(NC(=O)OCC4CC4)cc3C)c2cc1OC` [Example 381, Cyclopropylmethyl N-{4-[(6,7-dimethoxy-4-quinolyl)oxy]-2,5-dimethylphenyl}carbamate], 66 nM. By inhibition is commonly meant how much of the control response was suppressed. `COc1cc2ncnc(Oc3ccc(NC(=O)OCC4CC4)c(Cl)c3)c2cc1OC` [Example 384, Cyclopropylmethyl N-{2-chloro-4-[(6,7-dimethoxy-4-quinazolinyl)oxy]phenyl}carbamate]: the inhibition at 0.1 µM (figure in parentheses in >100( )) came out at 37%. For the same molecule, the IC50 (Pharmacological Test Example 1) is over 100 nM. On to `COc1cc2ncnc(Oc3ccc(NC(=O)OCC4CCC4)c(Cl)c3)c2cc1OC` [Example 389, Cyclobutylmethyl N-{2-chloro-4-[(6,7-dimethoxy-4-quinazolinyl)oxy]phenyl}carbamate], for which, for the setting “Pharmacological Test Example 1”, the IC50 amounted to 51 nM. As for `COc1cc2nccc(Oc3cc(C)c(NC(=O)OCCCN4CCCCC4)cc3C)c2cc1OC` [Example 414, 3-Piperidinopropyl N-{4-[(6,7-dimethoxy-4-quinolyl)oxy]-2,5-dimethylphenyl}carbamate], the IC50 is over 100 nM. Under setting [1], the inhibition at 0.1 µM was determined as 27%. For `COc1cc2nccc(Oc3ccc(NC(=O)ON4C(=O)c5ccccc5C4=O)cc3)c2cc1OC` [Example 416, 1,3-Dioxo-2,3-dihydro-1H-2-isoindolyl N-{4-[(6,7-dimethoxy-4-quinolyl)oxy]phenyl}carbamate], in that order: over 100 nM and 49%.

As to `COc1cc2nccc(Oc3cc(C)c(NC(=O)OCN4C(=O)c5ccccc5C4=O)cc3C)c2cc1OC` [Example 417, (1,3-Dioxo-2,3-dihydro-1H-2-isoindolyl)methyl N-{4-[(6,7-dimethoxy-4-quinolyl)oxy]-2,5-dimethylphenyl}carbamate], the IC50 is over 100 nM. In addition, the inhibition at 0.1 µM under setting [1] was 42%. The matching figures for `COc1cc2nccc(Oc3cc(C)c(NC(=O)OCCN4C(=O)c5ccccc5C4=O)cc3C)c2cc1OC` [Example 419, 2-(1,3-Dioxo-2,3-dihydro-1H-2-isoindolyl)ethyl N-{4-[(6,7-dimethoxy-4-quinolyl)oxy]-2,5-dimethylphenyl}carbamate]: over 100 nM and 47%. With `CCCC(CCN(CC)CC)OC(=O)Nc1ccc(Oc2ccnc3cc(OC)c(OC)cc23)cc1` (centres unmarked) [Example 441, 1-[2-(Diethylamino)ethyl]butyl N-{4-[(6,7-dimethoxy-4-quinolyl)oxy]phenyl}carbamate], the half-inhibitory concentration (IC50) stood at 70 nM. `COc1cc2nccc(Oc3ccc(NC(=O)OC(C#N)c4ccccc4)cc3)c2cc1OC` (centres unmarked) [Example 453, Cyano(phenyl)methyl N-{4-[(6,7-dimethoxy-4-quinolyl)oxy]phenyl}carbamate]: the IC50 is over 100 nM. In addition, the inhibition at 0.1 µM under setting [1] is 1%. The matching figures for `COc1cc2nccc(Oc3cc(C)c(NC(=O)OC(C#N)c4ccccc4)cc3C)c2cc1OC` (centres unmarked) [Example 454, Cyano(phenyl)methyl N-{4-[(6,7-dimethoxy-4-quinolyl)oxy]-2,5-dimethylphenyl}carbamate]: over 100 nM and 23%.

In the case of `COc1cc2nccc(Oc3ccc(NC(=O)OC(C#N)c4ccccc4)c(C)c3C)c2cc1OC` (centres unmarked) [Example 455, Cyano(phenyl)methyl N-{4-[(6,7-dimethoxy-4-quinolyl)oxy]-2,3-dimethylphenyl}carbamate], the IC50 was found to be 77 nM.

On to `COc1cc2ncnc(Oc3ccc(NC(=O)Oc4ccccc4C#N)cc3)c2cc1OC` [Example 456, 2-Cyanophenyl N-{4-[(6,7-dimethoxy-4-quinazolinyl)oxy]phenyl}carbamate], for which the IC50 was over 100 nM. Also, the inhibition at 0.1 µM under setting [1] was 21%. For `COc1cc2nccc(Oc3ccc(NC(=O)Oc4cccc(C#N)c4)cc3)c2cc1OC` [Example 457, 3-Cyanophenyl N-{4-[(6,7-dimethoxy-4-quinolyl)oxy]phenyl}carbamate], in that order: over 100 nM and 29%. For `COc1cc2nccc(Oc3cc(C)c(NC(=O)Oc4cccc(C#N)c4)cc3C)c2cc1OC` [Example 458, 3-Cyanophenyl N-{4-[(6,7-dimethoxy-4-quinolyl)oxy]-2,5-dimethylphenyl}carbamate], in that order: over 100 nM and 18%.

On to `COc1cc2nccc(Oc3cc(C)c(NC(=O)Oc4ccc(C#N)cc4)cc3C)c2cc1OC` [Example 460, 4-Cyanophenyl N-{4-[(6,7-dimethoxy-4-quinolyl)oxy]-2,5-dimethylphenyl}carbamate], for which the IC50 was over 100 nM. For the same molecule, the inhibition at 0.1 µM under setting [1] came to 15%. In the case of `COc1cc2nccc(Oc3ccc(NC(=O)Oc4ccc(C#N)cc4)c(C)c3C)c2cc1OC` [Example 461, 4-Cyanophenyl N-{4-[(6,7-dimethoxy-4-quinolyl)oxy]-2,3-dimethylphenyl}carbamate], the IC50 was found to be 60 nM.

On to `COc1cc2ncnc(Oc3ccc(NC(=O)OC4CCCN(C)C4)cc3)c2cc1OC` (centres unmarked) [Example 465, 1-Methyl-3-piperidyl N-{4-[(6,7-dimethoxy-4-quinazolinyl)oxy]phenyl}carbamate], for which the IC50 was found to be 56 nM. Regarding `COc1cc2nccc(Oc3ccc(NC(=O)OC4CCN(C)CC4)cc3)c2cc1OC` [Example 466, 1-Methyl-4-piperidyl N-{4-[(6,7-dimethoxy-4-quinolyl)oxy]phenyl}carbamate], the IC50 was over 100 nM. The inhibition at 0.1 µM under setting [1] came out at 16%. With `COc1cc2nccc(Oc3cc(C)c(NC(=O)OC4CCN(C)CC4)cc3C)c2cc1OC` [Example 467, 1-Methyl-4-piperidyl N-{4-[(6,7-dimethoxy-4-quinolyl)oxy]-2,5-dimethylphenyl}carbamate], the half-inhibitory concentration (IC50) was over 100 nM. The inhibition at 0.1 µM under setting [1] was determined as 8%. The matching figures for `COc1cc2nccc(Oc3ccc(NC(=O)OC4CCN(C)CC4)c(C)c3C)c2cc1OC` [Example 468, 1-Methyl-4-piperidyl N-{4-[(6,7-dimethoxy-4-quinolyl)oxy]-2,3-dimethylphenyl}carbamate]: over 100 nM and 20%.

`CCN(C(=O)OCc1ccccc1OC)c1ccc(Oc2ncnc3cc(OC)c(OC)cc23)cc1Cl` [Example 485, 2-Methoxybenzyl N-{2-chloro-4-[(6,7-dimethoxy-4-quinazolinyl)oxy]phenyl}-N-ethylcarbamate]: the IC50 was over 100 nM. Also, under setting [1], the inhibition at 0.1 µM stood at 35%. For `CCN(C(=O)OCc1ccccc1C)c1ccc(Oc2ncnc3cc(OC)c(OC)cc23)cc1Cl` [Example 486, 2-Methylbenzyl N-{2-chloro-4-[(6,7-dimethoxy-4-quinazolinyl)oxy]phenyl}-N-ethylcarbamate], in that order: over 100 nM and 36%.
